We go through 100 molecules from ChEMBL document CHEMBL3507680, “University of Dundee, Gates Library screen for HepG2 cell viability”.

A short description of this series: Human HepG2 cell viability assay in 384 well format. The format is toxicity, cell-based. Details: dose 125 nL, time 70.5 hour; cytotoxicity at 70.5 h: concentration not given beside the values. The note with it: HepG2 cells, read-out: Inhibition.
For `CCN(CC)S(=O)(=O)c1cccc(C(=O)N(C)Cc2ccsc2)c1`, the cytotoxicity at 70.5 h came out at 14.5%.

On to `Cc1cnn(CCNCc2ccc(OCc3noc(C)n3)cc2)c1`, for which the cytotoxicity at 70.5 h is -6.14%.

`CN1CCC(c2cncc(Cl)n2)CC1`: the cytotoxicity at 70.5 h is -5.05%.

For `O=C(NCc1ccccc1)N1CCC(Oc2ncccc2Br)CC1`, the cytotoxicity at 70.5 h is -7.02%.

Take `O=C(O)CC1COCCN1Cc1ccccc1-c1ccccc1` (stereo not given): the cytotoxicity at 70.5 h was determined as 14.8%.

`CN(C)CCN(C(=O)Cc1ccc2c(c1)OCCO2)C1CCN(C)CC1`: the cytotoxicity at 70.5 h was determined as 2.11%.

For `O=c1[nH]c(=O)n(CC(O)c2ccc(F)cc2F)cc1Cl` (stereo not given), the cytotoxicity at 70.5 h came to 0.374%.

In the case of `CCc1ccc(C(=O)Nc2cccc(CN3CCCC3C(N)=O)c2)cc1` (stereo not given), the cytotoxicity at 70.5 h worked out at 0.802%.

`O=C(CCCn1cnnn1)N1CCC(c2ccncc2)CC1`: the cytotoxicity at 70.5 h came out at 22.6%.

`CCc1nnc(CS(=O)(=O)c2ccc(C)cc2)n1C`: the cytotoxicity at 70.5 h is -0.707%.

In the case of `CC1CCCN1Cc1ccccc1-c1nc(C(C)(C)C)cc(=O)[nH]1` (stereo not given), the cytotoxicity at 70.5 h stood at 31.4%.

With `O=C(CC1CCCC1)NCCNCc1cccc2c1OCCO2`, the cytotoxicity at 70.5 h was 4.62%.

For `Cc1cnc(N2CCCC(O)C2)nc1-c1ccnn1C` (stereo not given), the cytotoxicity at 70.5 h turned out to be 10.8%.

For `CS(=O)(=O)NC[C@]12COC[C@H]1CN(CC1CCC1)C2`, the cytotoxicity at 70.5 h is -12.2%.

For the molecule `CCS(=O)(=O)N1CCOC2(CCCN(c3cnccn3)C2)C1` (stereo not given), the cytotoxicity at 70.5 h was -6.84%.

Turning to `O=C(c1ccc(S(=O)(=O)NCc2ccon2)cc1)N1CCCCCC1`, the cytotoxicity at 70.5 h is -7.49%.

With `CCC1CN(C(=O)CN2CCN(c3nccc(OC)n3)CC2)CCO1` (stereo not given), the cytotoxicity at 70.5 h is -12.3%.

Consider `CCOc1ccc(CNCc2cccnc2N(C)C)cc1`, for which the cytotoxicity at 70.5 h was -5.74%.

Turning to `Cc1cc(=O)n(C)cc1NC(=O)NCc1cccc(F)c1`, the cytotoxicity at 70.5 h was -2.73%.

On to `Cc1cc(N2CCC(CC(N)=O)CC2)nc(-c2ccncc2)n1`, for which the cytotoxicity at 70.5 h is -6.56%.

As to `O=C(NCCc1ccc2c(c1)OCO2)C1CCCN(Cc2ccco2)C1` (stereo not given), the cytotoxicity at 70.5 h is 1.41%.

On to `Cc1ccc(C(=O)NS(=O)(=O)c2ccc3c(c2)OCCCO3)o1`, for which the cytotoxicity at 70.5 h was 11.7%.

Turning to `Cn1cc(NC(=O)CNC(=O)N2CCN(c3ccccc3)CC2)cn1`, the cytotoxicity at 70.5 h was -8.66%.

In the case of `Cc1cc(C(F)(F)F)nc(CCNc2nc(C)nc3sccc23)n1`, the cytotoxicity at 70.5 h was found to be 15.7%.

With `COc1ccc2c(c1)OCC(Cc1cc(N3CCCC3)cnn1)C2` (stereo not given), the cytotoxicity at 70.5 h came out at 1.96%.

Turning to `CNS(=O)(=O)c1cc(C(=O)N2CCCCCC2CC(C)C)co1` (stereo not given), the cytotoxicity at 70.5 h was -3.95%.

`Cc1cc(-c2cccc(-c3ccn(CCCO)n3)c2)nc(N(C)C)n1`: the cytotoxicity at 70.5 h was -5.08%.

In the case of `CNC(=O)c1ccnc(CC2COc3c(cccc3OC)C2)c1` (stereo not given), the cytotoxicity at 70.5 h is -25.4%.

Regarding `CN(C)CCN1CCOCC2(CCCN(C(=O)c3cccc(O)c3)C2)C1` (stereo not given), the cytotoxicity at 70.5 h was -2.03%.

In the case of `CCn1ncnc1CN1CCOC(Cc2cccc3ccccc23)C1` (stereo not given), the cytotoxicity at 70.5 h was -7.56%.

Regarding `Cn1cc(N2CC3(CCN(Cc4ccoc4)CC3)OCC2=O)cn1`, the cytotoxicity at 70.5 h is -1.7%.

As to `CC(=O)Nc1nc(C2CN(C(=O)C3CCC3)C2)cs1`, the cytotoxicity at 70.5 h was -7.1%.

As to `COC(=O)NCC(=O)NCC(C)(C)c1cccc(C(F)(F)F)c1`, the cytotoxicity at 70.5 h was -1.23%.

Consider `CC(CO)(NC(=O)Nc1nnc(C(F)F)s1)C1CC1` (stereo not given), for which the cytotoxicity at 70.5 h amounted to 4%.

For `CNC(=O)N1C[C@H]2CC[C@@]3(N=C(c4ccccc4)NC3=O)[C@H]2C1`, the cytotoxicity at 70.5 h was -6.95%.

On to `CSCCC(=O)N[C@H]1CC[C@H](Nc2nccc(-c3ccncc3)n2)C1`, for which the cytotoxicity at 70.5 h was 23.8%.

Regarding `O=C(CCC(=O)c1cccs1)NC1(C(=O)NCC2CC2)CCCC1`, the cytotoxicity at 70.5 h was -1.16%.

On to `Cc1ccc(-c2nc3c([nH]2)CCNC3C(=O)O)c2cccnc12` (stereo not given), for which the cytotoxicity at 70.5 h is -6.16%.

On to `c1cnc(NC2COC3(CCN(Cc4cc[nH]n4)CC3)C2)nc1` (stereo not given), for which the cytotoxicity at 70.5 h was -99.2%.

Take `c1ccc2c(Cc3nnc([C@H]4CCN(CC5CC5)C4)o3)c[nH]c2c1`: the cytotoxicity at 70.5 h is -0.383%.

On to `O=C(CC1CCCO1)Nc1ccn(Cc2cccc3cccnc23)n1` (stereo not given), for which the cytotoxicity at 70.5 h is -6.79%.

With `CC(NCCN1CCN(C(=O)C2CCCC2)CC1)c1cnn(C)c1` (stereo not given), the cytotoxicity at 70.5 h is 5.6%.

For `Cc1nc(C)n(CC2CCCN(CC(=O)Nc3c(C)n[nH]c3C)C2)n1` (stereo not given), the cytotoxicity at 70.5 h is -7.16%.

Turning to `Cc1nc(C(=O)N(CC(=O)N(C)C)CC(F)(F)F)c2ccccn12`, the cytotoxicity at 70.5 h is -4.52%.

For the molecule `CCN(Cc1nc2c(cnn2C)c(=O)[nH]1)c1ccccc1C`, the cytotoxicity at 70.5 h was -11.2%.

Consider `O=C(c1ccsc1)N1CCC(Nc2cccnn2)CC1`, for which the cytotoxicity at 70.5 h was -3.37%.

Turning to `COC(=O)c1ccc(CN2CCC(c3n[nH]c(C)n3)CC2)s1`, the cytotoxicity at 70.5 h is -0.468%.

As to `Cc1cc(C)c(CNC(=O)N2CCC(N3CCCCC3)CC2)c(=O)[nH]1`, the cytotoxicity at 70.5 h is -7.65%.

Regarding `COC(=O)c1ccnn1COc1ccc(Cl)cc1`, the cytotoxicity at 70.5 h is 28.1%.

For the molecule `Cc1cccc(C(=O)NC2CCN(c3cnn(C)c3)C2=O)c1C` (stereo not given), the cytotoxicity at 70.5 h is -2.07%.

In the case of `Cc1cnn(C2CCCN(C(=O)Cc3n[nH]c4ccccc34)C2)c1` (stereo not given), the cytotoxicity at 70.5 h is 0.337%.

With `CC(C)(C)CC(=O)Nc1ccc(S(C)(=O)=O)nc1`, the cytotoxicity at 70.5 h is -6.59%.

As to `Cn1cc(-c2ccnc(NCC3CC3)n2)cn1`, the cytotoxicity at 70.5 h was -10.3%.

For `CCc1ncncc1C(=O)N1CCOC(c2nc(C)n[nH]2)C1` (stereo not given), the cytotoxicity at 70.5 h was -3%.

Regarding `CCCc1nc(CNc2cc(CS(C)(=O)=O)ccc2Cl)no1`, the cytotoxicity at 70.5 h was -0.135%.

For the molecule `c1ncc2c(n1)CN(CC1CCCCO1)CC2` (stereo not given), the cytotoxicity at 70.5 h turned out to be 6.75%.

Consider `CO[C@@H]1CC[C@H]2[C@H]1OCCN2S(=O)(=O)c1cn(C)cn1`, for which the cytotoxicity at 70.5 h was 0.221%.

Take `CCN1CCN(C(=O)C2CCCc3[nH]ncc32)CC1` (stereo not given): the cytotoxicity at 70.5 h turned out to be 1.54%.

`CCN(Cc1cccc(C(=O)Nc2cn(C)nn2)c1)[C@H]1COC[C@@H]1O`: the cytotoxicity at 70.5 h was -5.22%.

On to `COCCN1CCC(CN(C)c2nc3c(s2)c(C)nn3C)CC1`, for which the cytotoxicity at 70.5 h amounted to 13.5%.

Consider `Cn1cc(C(=O)N2CC[C@@H]3[C@@H]2CCN3c2ncc(F)cn2)cn1`, for which the cytotoxicity at 70.5 h is -5.7%.

Consider `Cc1ccc(C(=O)O)cc1-c1cccc(C(C)N(C)C)c1` (stereo not given), for which the cytotoxicity at 70.5 h is -2.39%.

For `CC(C)Nc1nc2c(cc1C(=O)NCC1CC1)CCNCC2`, the cytotoxicity at 70.5 h was -10%.

Consider `CCc1c(C)[nH]c(C2(N)CCCCC2)nc1=O`, for which the cytotoxicity at 70.5 h worked out at 0.763%.

As to `CC(NS(C)(=O)=O)C(=O)N(C)Cc1cnn(-c2ccc(F)cc2)c1` (stereo not given), the cytotoxicity at 70.5 h came to 3.12%.

For `CNc1cc(C2CCCNC2)nc(C)n1` (stereo not given), the cytotoxicity at 70.5 h turned out to be 16.2%.

Consider `NC(=O)C1CCN(C(=O)Cc2ccc(Cl)c(Cl)c2)CC1`, for which the cytotoxicity at 70.5 h was -2.27%.

`CCC(NC(=O)CN(C)Cc1ccc(C)o1)c1ccc(Br)cc1` (stereo not given): the cytotoxicity at 70.5 h was -1.78%.

As for `O=C(CN1CCC(c2ccccc2)C1)NCC(F)(F)F` (stereo not given), the cytotoxicity at 70.5 h was determined as 1.22%.

Take `Cc1cccc(C(C)C)c1NC(=O)CN(C)C(C)c1nccs1` (stereo not given): the cytotoxicity at 70.5 h was -9.73%.

For `O=C(NCC1CC1)C1CCC2(CCN(C(=O)c3ccco3)CC2)O1` (stereo not given), the cytotoxicity at 70.5 h was -15.5%.

Take `CC(C)OCCSCc1nnc(-c2cccc(F)c2)o1`: the cytotoxicity at 70.5 h was -5.57%.

For `O=C(NCCC1CN(C2CCCC2)CCO1)c1cc(=O)[nH]c(=O)[nH]1` (stereo not given), the cytotoxicity at 70.5 h was -11.6%.

With `CC(O)CN1CCC(CNCc2cccc(C(=O)N(C)C)c2)CC1` (stereo not given), the cytotoxicity at 70.5 h worked out at 1.45%.

As to `N#Cc1c(Cl)nsc1NCc1ccnc(OCC(F)(F)F)c1`, the cytotoxicity at 70.5 h was -44.2%.

On to `Cc1nc(C)c(C(=O)N2CCc3ccc(F)cc3C2C)o1` (stereo not given), for which the cytotoxicity at 70.5 h is -0.841%.

`CC(Cc1ccco1)NC(=O)Nc1ccc(S(C)(=O)=O)nc1` (stereo not given): the cytotoxicity at 70.5 h is -2.2%.

In the case of `CSCC(CCO)NC(=O)Nc1ccc(C)cc1Br` (stereo not given), the cytotoxicity at 70.5 h came to 0.54%.

For the molecule `Cc1ccc(C(=O)N2CCC(O)(CN3CCc4ccccc4C3)C2)s1` (stereo not given), the cytotoxicity at 70.5 h was -2.78%.

Take `CC(C)c1cc(CN2CCC(CC(=O)O)CC2)no1`: the cytotoxicity at 70.5 h was -2.18%.

In the case of `O=C(c1cc2c(s1)CCCC2)N1CCc2nc(C3CCCN3)ncc2C1` (stereo not given), the cytotoxicity at 70.5 h turned out to be 6.76%.

With `COCCOc1nc(-c2ccccc2Cl)no1`, the cytotoxicity at 70.5 h was -78.8%.

As for `CS(=O)(=O)CCOCCNc1ccc(C(F)(F)F)cc1C#N`, the cytotoxicity at 70.5 h is -3.49%.

Regarding `O=C(c1nn(-c2ccccc2F)cc1O)N1CCC2(CC1)OCCO2`, the cytotoxicity at 70.5 h turned out to be 13.2%.

As to `CC(=O)N1CCN([C@@H]2CC[C@@H](NC(=O)c3ccc(C)nc3)[C@H]2O)CC1`, the cytotoxicity at 70.5 h was -5.95%.

For `NC(=O)c1ccc(CN2CCC(N3CCCCC3)CC2)cc1`, the cytotoxicity at 70.5 h was -1.57%.

On to `O=C(COCC1CCCO1)N(Cc1cccnc1)c1ccc(F)cc1` (stereo not given), for which the cytotoxicity at 70.5 h amounted to 2.18%.

For the molecule `O=C(NC1CC1)[C@H]1CC[C@@H]2[C@@H](CCN2c2ncc(F)cn2)O1`, the cytotoxicity at 70.5 h is -11.8%.

In the case of `Cc1ccc(NC2CCN(C(=O)CCNS(C)(=O)=O)CC2)nn1`, the cytotoxicity at 70.5 h is -19%.

Turning to `Cc1ccccc1C(=O)Nc1cnn(CC(=O)NC2CCCC2)c1`, the cytotoxicity at 70.5 h was -3.04%.

Take `CN(C)CCO[C@@H]1CC[C@H]2[C@H]1OCCN2C(=O)COc1ccccc1`: the cytotoxicity at 70.5 h is -16.3%.

With `Cc1cc(C(=O)N2CCC(Nc3cccnc3)CC2)c(C)s1`, the cytotoxicity at 70.5 h was determined as 2.17%.

As for `CC(C)c1ccc(S(=O)(=O)NC2CCN(CC(F)(F)F)C2)cc1` (stereo not given), the cytotoxicity at 70.5 h is 16.7%.

As for `O=C(NCc1ccccn1)NCC(c1ccco1)N1CCCC1` (stereo not given), the cytotoxicity at 70.5 h is -1.51%.

Turning to `Cc1nc(C)c2c(n1)CCN(Cc1ccsc1)CC2`, the cytotoxicity at 70.5 h was -0.781%.

Turning to `CN(CC1(O)CCCN(c2ccccn2)C1)C(=O)CCc1cccs1` (stereo not given), the cytotoxicity at 70.5 h is -7.41%.

Regarding `COCC(C)NC(=O)CN1CCC(C)CC1` (stereo not given), the cytotoxicity at 70.5 h was -20.8%.

Consider `CC(NC(=O)NCCCn1ccnc1)c1nncn1C` (stereo not given), for which the cytotoxicity at 70.5 h was -2.89%.

On to `CCCOCCCNc1nccc(-c2cn(C)nc2C)n1`, for which the cytotoxicity at 70.5 h is -4.32%.

As for `CN(CCOc1ccc(F)cc1)S(=O)(=O)c1cnn(C)c1`, the cytotoxicity at 70.5 h is -8.4%.
